# Measurements published in patent US20050137251A1, “Dexanabinol and dexanabinol analogs regulate inflammation related genes” (priority 2002, published 2005).
# Assays:
# TNF-α secretion = TNF-α secretion in LPS activated macrophages; assay type: cell-based; details: Mus musculus, Macrophage, read-out: IC50 for inhibition of TNF-α secretion
# From the text: (§1) The technique used to quantify the amount of a given protein in a liquid sample, either tissue culture supernatant or body fluid, is based on Enzyme Linked ImmunoSorbent Assay (ELISA) methodology. Either commercially available or established in house, the assay is based on the capture of the protein of interest by specific antibodies bound to the bottom of an ELISA plate well. Unbound material is washed away, the captured protein is then exposed to a secondary antibody generally labeled with horseradish peroxidase (HRP) or alkaline phosphatase (ALP). Again the unbound material is washed away, the samples are then incubated with the appropriate substrate yielding a colorimetric reaction. The reaction is stopped and reading is carried out in a spectrophotometer at the appropriate wavelength. Samples are tested at least in duplicate and the appropriate standard curve, consisting of serial dilutions of the recombinant target protein, is incorporated on each plate. Concentration of the protein in the sample is calculated from the standard curve.
# (§2) RAW 264.7 macrophages, a mouse cell line (ATCC # TIB 71), were grown in Dulbecco's modified Eagle's medium (DMEM) with 4 mM L-glutamine adjusted to contain 1.5 g/L sodium bicarbonate, 4.5 g/L glucose, and 10% heat inactivated fetal bovine serum. […]
# IL-10 gene expression = IL-10 gene expression in MCAo mice brains; details: 5 mg/kg i.v., 18 hours of MCAo
# Panc-1 = Panc-1 pancreatic tumor cell proliferation (crystal violet); assay type: cell-based; details: Homo sapiens, 24 hours, read-out: Inhibition of Panc-1 cells proliferation
# Method: (§3) Cells from several tumor-derived cell lines are tested for their proliferation capacity in presence of our test compounds. Pancreatic tumor cell lines were obtained from ATCC. Panc-1 (ATCC # CRL-1469) were cultured in DMEM supplemented with 4 mM Glutamine, 4.5 g/L glucose, 1.5 g/L bicarbonate, antibiotics (penicillin, nystatin and streptomycin) and 10% heat inactivated fetal calf serum. Aspc-1 (ATCC # CRL-1682) were cultured in RPMI supplemented with 2 mM Glutamine, 10 mM HEPES, 1 mM sodium pyruvate, 4.5 g/L glucose, 1.5 g/L bicarbonate, antibiotics (penicillin, nystatin and streptomycin) and 20% heat inactivated fetal calf serum. Cells were seeded in a 24 well plate (10^5 cells/ml/well) and grown overnight. The cells are incubated with the test compounds (1-100 μM) or vehicle (0.1% DMSO final concentration). Cell viability was determined 24 hours later using standard crystal violet staining. The culture medium was removed from the wells and the cells were fixed by adding 1 ml/well of 2% formaldehyde in PBS for 10 minutes. […] The plates were agitated for 15 minutes at room temperature and 100 μl were transferred in duplicate to a 96 well plate for reading. Optical density (OD) of the cells was measured at 620 nm in an ELISA reader and results are expressed as % viable cells. Absorbance of untreated cells is recorded as 100%.
# recombinant COX-2 = recombinant COX-2 (Homo sapiens, UniProt P35354); experiment: In vitro enzymatic activity of recombinant COX-2 (PGF2α EIA); assay type: biochemical; details: purified COX-2, test compounds up to 10 μM, 5 min preincubation, substrate AA
# IL-2 gene expression = IL-2 gene expression in Jurkat T cells activated with PMA and calcium ionophore; assay type: cell-based, human; details: 10 μM, RNA 6 hrs after activation
# Method: The human acute lymphoma T cell line Jurkat (ATCC # TIB 152) was used to test the possible immunosuppressive effect of dexanabinol and its analogs on T cell activation. […] 2×10^6 cells in one milliliter were stimulated using 10 ng/ml of PMA (Sigma) and 1 μM A23187 calcium ionophore (Sigma). […] The controls and test compounds were added at indicated concentrations one hour before stimulation.
# The results are plotted after normalization to cyclophilin A expression.
# IL-1β secretion = IL-1β secretion in LPS activated macrophages; assay type: cell-based; details: Mus musculus, Macrophage, read-out: IC50 for inhibition of IL-1β secretion
# From the text: as §1, §2
# COX-2 gene expression [1] = experiment: COX-2 gene expression in LPS stimulated RAW 264.7 cells, real-time RT-PCR; assay type: cell-based, mouse; details: 10 μM, 2.5 hrs after LPS activation
# Method: (§4) RAW 264.7 macrophages, a mouse cell line (ATCC # TIB 71), were grown in Dulbecco's modified Eagle's medium (DMEM) with 4 mM L-glutamine adjusted to contain 1.5 g/L sodium bicarbonate, 4.5 g/L glucose, and 10% heat inactivated fetal bovine serum. Cells were grown in tissue culture flasks and seeded at appropriate density into 24 wells tissue culture plates. 0.5×10^6 Raw cells in one milliliter were stimulated with 2 μg/ml Lipopolysaccharide E. coli 055:B5 (DIFCO Laboratories). The mouse macrophages were pre-treated for one hour with controls or 10 μM of dexanabinol and its analogs, unless indicated otherwise, and later on activated with LPS.
# The results of this experiment are expressed as fold activation of COX-2 over non-activated macrophages, after normalization to cyclophilin A expression. When cells are treated with vehicle only we observe a maximal 6-fold increase in COX-2 expression. A decrease of 67% in RNA levels of COX-2 is observed when the activation is carried out in presence of 10 μM dexanabinol.
# To test if COX-2 is the sole gene whose transcription is affected by compounds of the invention, additional genes were further analyzed by real-time RT-PCR in the above-described model of activated macrophages. This part of the study was performed with PRS-211,092 at doses up to 20 μM.
# PGE2 secretion = experiment: Inhibition of PGE2 secretion in LPS activated mouse macrophages (RAW 264.7); assay type: cell-based; details: RAW264.7, LPS activated RAW 264.7 cells
# Method: The assay reproduces in vitro the true enzymatic activity, the test compounds, up to 10 μM, were preincubated for 5 minutes with purified COX-2, then the natural substrate AA was added and the reaction was allowed to proceed for 2 minutes. HCl was used to stop the enzyme catalysis and saturated stannous chloride was added to stabilize the PGH2 product into PGF2α.
# as §4
# COX-2 gene expression [2] = experiment: COX-2 gene expression in MCAo mice brains; details: 5 mg/kg i.v., 18 hrs following MCAo
# Aspc-1 = Aspc-1 pancreatic tumor cell proliferation (crystal violet); assay type: cell-based; details: up to 15 μM, 24 hours
# Method: as §3
# iNOS gene expression = iNOS gene expression in MCAo mice brains; details: 5 mg/kg i.v., 18 hrs following MCAo
# Sequence of recombinant COX-2 (P35354 18-604): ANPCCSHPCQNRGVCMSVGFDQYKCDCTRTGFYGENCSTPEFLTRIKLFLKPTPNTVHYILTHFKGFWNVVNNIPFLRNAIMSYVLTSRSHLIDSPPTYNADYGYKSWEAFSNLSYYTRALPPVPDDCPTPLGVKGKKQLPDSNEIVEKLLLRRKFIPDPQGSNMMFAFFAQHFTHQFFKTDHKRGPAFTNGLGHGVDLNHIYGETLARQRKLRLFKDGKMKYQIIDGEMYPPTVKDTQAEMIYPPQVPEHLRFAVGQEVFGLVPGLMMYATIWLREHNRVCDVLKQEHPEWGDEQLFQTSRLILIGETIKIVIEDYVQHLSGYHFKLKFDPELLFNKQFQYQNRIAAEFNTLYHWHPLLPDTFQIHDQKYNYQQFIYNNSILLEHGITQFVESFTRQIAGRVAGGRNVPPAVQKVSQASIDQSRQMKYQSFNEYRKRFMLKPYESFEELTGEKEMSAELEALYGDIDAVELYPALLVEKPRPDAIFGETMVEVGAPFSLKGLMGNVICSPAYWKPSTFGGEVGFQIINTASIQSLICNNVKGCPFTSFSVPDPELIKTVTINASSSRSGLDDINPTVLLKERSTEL
smiles,measurement,setting,value
"CCCCCCC(C)(C)c1cc(O)c2c(c1)OC(C)(C)[C@H]1CC=C(CO)C[C@H]21 [dexanabinol, 1,1-dimethylheptyl-(3S,4S)-7-hydroxy-Δ^6-tetrahydrocannabinol]",IC50,TNF-α secretion,10 to 20 µM
same,Further increase of IL-10 gene expression vs vehicle,IL-10 gene expression,4.4 fold
same,inhibition at 15 µM,Panc-1,26%
same,Inhibition of COX-2 enzymatic activity,recombinant COX-2,no inhibitory effect
same,Reduction of IL-2 fold of activation,IL-2 gene expression,41%
same,IC50,IL-1β secretion,6 µM
same,Decrease in RNA levels of COX-2,COX-2 gene expression [1],67%
same,IC50,PGE2 secretion,10 µM
same,Reduction of COX-2 gene activation vs vehicle,COX-2 gene expression [2],38%
same,Effect on Aspc-1 proliferation,Aspc-1,not affected
same,Modulation of iNOS gene expression,iNOS gene expression,not modulated
